The values below come from patent US4584300A, “Platelet anti-aggregative- and calcium antagonistic -1,4-benzothiazin-3-one derivatives, compositions, and methods of use therefor” (Santen Pharmaceutical Co., Ltd., priority 1983, dated 1986).

Counter-ions that a name gives are not always drawn. Bounds are passed on as bounds.

In one data set the test system is guinea-pig teania coli. The experiment in a line: Calcium-antagonistic activity: inhibition of CaCl2-evoked contraction of isolated guinea-pig teania coli. The class given is tissue-based. Conditions: Cavia porcellus, 5 min; 50% inhibition of Ca^++-evoked contraction; CaCl2 3×10^-4 M; 5 minutes exposure; 32° C. As to the method:
The action potentials on the smooth muscles of uterus, teania coli and portal vein are dependent on calcium ion, and therefor these smooth muscle preparations are useful for screening of calcium antagonists. We measured the calcium-antagonistic activity of the compounds by the method using guinea-pig teania coli preparation.
Isolated guinea-pig teania coli was suspended in a 20 ml organ bath with Krebs solution at 32° C. and bubbled with 5% carbon dioxide in oxygen. After equilibration, the muscle was washed with Ca^++ -free Krebs solution, and when the muscle had relaxed to basal level, it was suspended in Ca^++ -free-high-K Krebs solution.
The muscle was exposed to test compounds for 5 minutes before addition of CaCl2, and the contraction evoked by CaCl2 (3×10^-4 M) was recorded isotonically. The calcium-antagonistic activity was represented by the concentration of test compound which elicited 50% inhibition of Ca^++ -evoked contraction (IC50).
The IC50 is the midpoint of a concentration-inhibition curve. Regarding `COc1ccc(CCN2CCN(CCCOc3ccc(C4Sc5ccccc5NC4=O)cc3)CC2)cc1OC` (stereo not shown) [Compound 71], the 50% inhibitory concentration (IC50) is 2 µM.
Turning to `COc1ccc(OCCCN2CCN(CCc3cc(OC)c(OC)c(OC)c3)CC2)c(C2Sc3ccccc3N(C)C2=O)c1` (stereo not shown) [Compound 77], the half-inhibitory concentration (IC50) amounted to 1.6 µM.
Turning to `COc1ccc(OCCCCCN(C)C2CCCCC2)c(C2Sc3ccccc3N(C)C2=O)c1` (stereo not shown) [Compound 64], the IC50 was found to be 3 µM.
With `COc1ccc(OCCCCN2CCN(CC(=O)c3ccccc3)CC2)c(C2Sc3ccccc3N(C)C2=O)c1` (stereo not shown) [Compound 79], the concentration for half-maximal inhibition (IC50) came out at 3.9 µM.
Take `COc1ccc(OCCCN(C)C2CCCCC2)c(C2Sc3ccccc3N(C)C2=O)c1` (stereo not shown) [Compound 62]: the IC50 was determined as 1.6 µM.
Still for that read-out and setting: the same measure for `COc1ccc(OCCCCN2CCC(C(=O)c3ccccc3)CC2)c(C2Sc3ccccc3N(C)C2=O)c1` (stereo not shown) [Compound 65]: 1.8 µM; for `COc1ccc(OCCCN(C)CCc2ccc(OC)c(OC)c2)c(C2Sc3ccccc3NC2=O)c1` (stereo not shown) [Compound 59]: 2 µM.
On the same count and under the same terms, under `COc1ccc(OCC(O)CN2CCN(CC(=O)c3ccccc3)CC2)c(C2Sc3ccccc3N(C)C2=O)c1` (stereo not shown) [Compound 107, 3,4-Dihydro-2-[5-methoxy-2-[2-hydroxy-3-(4-phenacylpiperazino)propoxy]phenyl]-4-methyl-3-oxo-2H-1,4-benzothiazine dimaleate] stands 3.8 µM; under `CN(C)CCCOc1ccc(C2Sc3ccccc3N(C)C2=O)cc1` (stereo not shown) [Compound 72, 3,4-Dihydro-2-[4-(3-dimethylaminopropoxy)phenyl]-4-methyl-3-oxo-2H-1,4-benzothiazine], 2.6 µM.
Turning to `COc1ccc(OCCCN(C)C)c(C2Sc3ccccc3N(C)C2=O)c1` (stereo not shown) [Compound 61], the IC50 was 2.5 µM.
In the case of `CN1C(=O)C(c2ccc(OCCCN(C)C3CCCCC3)cc2)Sc2ccccc21` (stereo not shown) [Compound 73], the half-maximal inhibitory concentration (IC50) came to 3.4 µM.
Still for that read-out and setting: under `COc1ccc(OCCCCCN(C)C2CCCCC2)c(C2Sc3ccccc3NC2=O)c1` (stereo not shown) [Compound 58] stands 2.6 µM; under `COc1ccc(OCCCCN2CCN(CCc3cc(OC)c(OC)c(OC)c3)CC2)c(C2Sc3ccccc3NC2=O)c1` (stereo not shown) [Compound 75], 3 µM; under `CN(CCCOc1ccc(C2Sc3ccccc3NC2=O)cc1)C1CCCCC1` (stereo not shown) [Compound 68], 1.9 µM.

Test system in another data set: not listed separately
The experiment in a line: Acute toxicity test, oral. The following applies: mouse, in vivo, orally, male ddy-SLC mice. As to the method: Male ddy-SLC strain mice (4 weeks of age, weighing 19-21 g) were placed in a breeding room of constant temperature and huminity (23±1° C., 55±5%) and fed freely pellet diet and water ad. libitum for a week. Mice showing normal growth were selected for the test. (method of administration)
Test compounds are suspended in 0.5% tragacanth suspention and administered orally in a dose of 0.5 ml/20 g body weight.
As usually defined, the LD50 is the dose at which mortality reaches 50%. Higher therefore signals a less toxic substance. The compound `COc1ccc(OCCCN2CCN(CCc3cc(OC)c(OC)c(OC)c3)CC2)c(C2Sc3ccccc3N(C)C2=O)c1` (stereo not shown) [Compound 77] gave a median lethal dose (LD50) of over 1280 mg/kg.
`CN1C(=O)C(c2ccc(OCCCN(C)C3CCCCC3)cc2)Sc2ccccc21` (stereo not shown) [Compound 73] displayed an LD50 of 500 to 1000 mg/kg.

The next data set concerns blood platelet (rabbit platelet rich plasma). Kind of data set: Anti-aggregatory activity: inhibition of collagen- or ADP-induced platelet aggregation in vitro (PRP). The class given is cell-based. The following applies: Oryctolagus cuniculus, 50% inhibition of control response, collagen (3 μg/ml) or ADP (3 μM), table does not say which, 37° C. As to the method: Blood was obtained from an anesthetized rabbit using 0.1 volumes of 3.8% sodium citrate as anticoagulant. Platelet rich plasma(PRP) was isolated by centrifugation at 650 rpm for 10 minutes at room temperature. After preincubation of PRP (0.25 ml) with various concentrations of test compounds (14 μl) for 1 minute at 37° C., collagen (3 μg/ml:final concentration) or ADP (3 μM:final concentration) was added to induce aggregation and the aggregation profiles were monitored with RIKADENKI six-channel aggregometer. The control experiment contained saline instead of test compound.
The anti-aggregatory activity was represented by the concentration of test compound which elicited 50% inhibition of control response.
`COc1ccc(OCCCN2CCN(CC(=O)c3ccccc3)CC2)c(C2Sc3ccccc3NC2=O)c1` (stereo not shown) [Compound 76]: it took 3.2 µM to reach half-maximal inhibition (IC50).
In the case of `COc1ccc(OCCCCN2CCN(CCc3cc(OC)c(OC)c(OC)c3)CC2)c(C2Sc3ccccc3N(C)C2=O)c1` (stereo not shown) [Compound 78], the midpoint of inhibition, the IC50, lay at 3.5 µM.
As for `COc1ccc(OCCCCN(C)C2CCCCC2)c(C2Sc3ccccc3N(C)C2=O)c1` (stereo not shown) [Compound 63, 3,4-Dihydro-2-[5-methoxy-2-[4-(N-methylcyclohexylamino)butoxy]phenyl]-4-methyl-3-oxo-2H-1,4-benzothiazine oxalate], inhibition was half-maximal at 3.2 µM (IC50).
In the case of `COc1ccc(OCC(O)CNC(C)(C)C)c(C2Sc3ccccc3NC2=O)c1` (stereo not shown) [Compound 105, 2-[2-(3-tert-Butylamino-2-hydroxypropoxy)-5-methoxyphenyl]-3,4-dihydro-3-oxo-2H-1,4-benzothiazine], inhibition was half-maximal at 1 µM (IC50).
The same measure, in the same setting: under `COc1ccc(OCCCCN(C)C2CCCCC2)c(C2Sc3ccccc3NC2=O)c1` (stereo not shown) [Compound 57] stands 3.2 µM; under `COc1ccc(OCCCN(C)C)c(C2Sc3ccccc3NC2=O)c1` (stereo not shown) [Compound 55, 3,4-dihydro-2-[2-(3-dimethylaminopropoxy)-5-methoxyphenyl]-3-oxo-2H-1,4-benzothiazine], 3.2 µM; under `COc1ccc(OCC(O)CNC(C)(C)C)c(C2Sc3ccccc3N(C)C2=O)c1` (stereo not shown) [Compound 106], 1.3 µM.
In turn, `CN(C)CCCOc1ccc(C2Sc3ccccc3NC2=O)cc1` (stereo not shown) [Compound 67] yielded a 50% inhibitory concentration (IC50) of 1.6 µM.
For the compound `COc1ccc(OCCCN(C)C)c(C2Sc3ccccc3N(CCCN(C)C)C2=O)c1` (stereo not shown) [Compound 82, 3,4-Dihydro-2-[2-(3-dimethylaminopropoxy)-5-methoxyphenyl]-4-(3-dimethylaminopropyl)-3-oxo-2H-1,4-benzothiazine dioxalate], half-maximal inhibition (IC50) required 3.2 µM.
